PMC9688808, “Discovery of Novel Lin28 Inhibitors to Suppress Cancer Cell Stemness” (Cancers, 2022)

Legend:
Lin28A ZKD = target: T1, Lin28A ZKD (Homo sapiens, UniProt Q9H9Z2); test: Fluorescence polarization (FP) assay, Lin28A ZKD with FAM-labeled Let-7 probe; format: binding; conditions: for suppression of FP signals: Lin28A ZKD; for IC50: 10 uM Lin28A ZKD, 1 nM FAM-labeled Let-7 probe, 1 nM–200 uM compound
T1 construct: Lin28A ZKD (aa121-187); His-tag; made in house; host or cells: Escherichia coli BL21
T1 sequence (Q9H9Z2 121-187): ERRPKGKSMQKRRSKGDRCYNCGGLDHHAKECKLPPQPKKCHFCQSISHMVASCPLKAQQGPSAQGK
Description: ZINC compounds were purchased from Enamine (Kyiv, Ukraine), Life Chemicals Ltd. (Kyiv, Ukraine), or Princeton Biomolecular Research (Princeton, NJ, USA) with >90% purity. Upon receiving the compounds, the molecular masses were validated by LC/MS/MS. His-tagged human Lin28B ZKD (aa110-174), Lin28B CSD+ZKD (aa7-204), and Lin28A ZKD (aa121-187) were expressed in Escherichia coli BL21 cells and purified by immobilized metal ion affinity chromatography (IMAC) with nickel nitrilotriacetic acid (NiNTA) resin and size exclusion chromatography (s75 10/300 GL) as we have previously reported.
The fluorescein amidites (FAM)-tagged Let-7 probe with the sequence of […] was purchased from Integrated DNA Technologies (IDT). The probe at the concentrations ranging from 1 nM to 50 uM was incubated with Lin28B (ZKD) or Lin28 (CSD+ZKD) to a final volume of 30 uL at room temperature for 20 min. To read the fluorescence, a TECAN 500 machine was used. Fluorescence polarization was calculated using the following equation: P=Fparrallel−Fperpendicular/Fparrallel+Fperpendicular where P is the fluorescence polarization reading, F parallel is the fluorescence intensity acquired from the parallel excitation plane, and F perpendicular is the fluorescence intensity acquired from the perpendicular direction of the excitation plane. The total fluorescence intensity is estimated using the following equation: F=Fparallel+2Fperpendicular
All the raw FP signal data from the TECAN 500 FP results were analyzed using Prism 8.0 (GraphPad, San Diego, CA, USA); normalized curves were plotted and IC50 values were estimated. All FP data were repeated three to five times.
Figure 5 Lin28 inhibitors block the Lin28A isoform. (A) EMSA used 10 nM of IR800DyeCWN-labeled Let-7 probe (lane 1), 0.5 uM Lin28A ZKD protein with 10 nM of labeled Let-7 probe (lane 2), or Lin28A ZKD, labeled Let-7 probe and 100× non-labeled competitor probe (lane 3). EMSA used Lin28A ZKD, labeled Let-7 probe, and 100–1200 uM of indicated compounds (lanes 4–10). (B) FP assays were performed by using 10 uM of Lin28A ZKD, 1 nM of FAM-labeled Let-7 probe, and 1 nM–200 uM of compounds. (C) Lin28A-positive IGROV1 cells were treated with 20 uM of the indicated compound for 48 h. Real-time qPCR measured RNA levels of Let-7d, SOX2, and HMGA2. Three biological replicates were performed and all results are presented as mean +/− SD. p-value ≤ 0.05—(*); ≤0.01—(**); ≤0.001—(***).

Lin28B ZKD = target: T2, Lin28B ZKD (Homo sapiens, UniProt Q6ZN17); test: EMSA, Lin28B ZKD–Let-7 complex; format: binding; conditions: compounds 0–1200 uM
T2 construct: His-tagged human Lin28B ZKD (aa110-174); His-tag; made in house; host or cells: Escherichia coli BL21
T2 sequence (Q6ZN17 110-174): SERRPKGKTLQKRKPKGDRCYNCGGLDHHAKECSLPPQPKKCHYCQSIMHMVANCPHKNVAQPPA
Procedure: EMSA followed the standard protocols we published with minor modifications. An IRDye800CWN-labeled Let-7 RNA probe was purchased from IDT (Coralville, IA, USA). Lin28B or Lin28A proteins were incubated with […] of probe in a standard 20 uL EMSA reaction in a reaction buffer containing 20 mM HEPES-NaOH, pH 7.4, 2 mM DTT, 3 mM MgCl2, 0.05% NP-40, protease inhibitors, and 0.1 ug poly[dI:dC]. After incubation for 30 min at 37 °C, reactions were loaded onto 4% non-denatured polyacrylamide gel in 0.5× TBE buffer. The RNA oligo bands were visualized by using the Li-Cor Odyssey 9120 Infrared Imaging System.
Figure 3 Lin28 inhibitors block the interaction between Lin28B ZKD and Let-7. (A) EMSA used 10 nM of IR800DyeCWN-labeled let-7 probe (lane 1), 0.5 uM Lin28B ZKD protein with 10 nM of labeled Let-7 probe (lane 2), or Lin28B ZKD, labeled Let-7 probe and 100× non-labelled competitor probe (lane 3). EMSA used Lin28B ZKD, labeled Let-7 probe, and 100–1200 uM of indicated compounds (lanes 4–10). (B) FP assays were performed by using 10 uM of Lin28B ZKD and 1 nM of FAM-labeled Let-7 probe and 1 nM–1000 uM of compounds. (C) Bio-layer interferometry (BLI) assays were performed using 0–25 uM of Ln115 with Avi-tagged Lin28B ZKD protein. (D) Chemical structures of the three lead compounds were shown.

Compound | suppression of FP signals (Lin28A ZKD) | inhibition of ZKD–Let-7 complex in EMSA (Lin28B ZKD) | IC50 (Lin28A ZKD) | concentration that disrupts ZKD–Let-7 complex in EMSA (Lin28B ZKD)
CCOc1cccc2c1N[C@@H](c1ccc(C(=O)O)cc1)[C@H]1CC=C[C@@H]21 [Li71, reference compound] | mild inhibitions | robust inhibition |  | 
CC(=O)N(C)c1cccc(-c2ccc3nnc(C)n3n2)c1 [compound 1632, reference compound] | mild inhibitions |  |  | 
O=c1[nH]c(Nc2ccccc2O)cs1 [Ln15] |  |  | 9.1 µM | 400 µM
CCc1cc(=O)[nH]c(Nc2cc(Cl)ccc2O)n1 [Ln7] |  |  | 27.4 µM | > 1000 µM
O=c1cccc(-c2nc3cc(F)c(O)cc3c(=O)[nH]2)[nH]1 [Ln115] |  |  | 12.2 µM | 
